This test concerns the target truncated form of human NaV 1.8 with full channel activity (expressed in HEK cells) (Homo sapiens, UniProt Q9Y5Y9). Kind of test: E-VIPR assay detecting and measuring NaV inhibition properties (electrical stimulation, membrane potential FRET dyes). The format is cell-based. The conditions noted are these: HEK cells expressing truncated human NaV 1.8, KIR2.1 BacMam; 11-point dose response; 30 min compound incubation; stimulation 10 Hz for 10 s; read-out: measured IC50 value in the E-VIPR Assay. The source says:
E-VIPR Assay Detecting and Measuring NaV Inhibition Properties
Sodium ion channels are voltage-dependent proteins that can be activated by inducing membrane voltage changes by applying electric fields. […] The instrument comprises a microtiter plate handler, an optical system for exciting the coumarin dye while simultaneously recording the coumarin and oxonol emissions, a waveform generator, a current- or voltage-controlled amplifier, and parallel electrode pairs that are inserted into assay plate wells. Under integrated computer control, this instrument passes user-programmed electrical stimulus protocols to cells within the wells of the microtiter plate.
16-20 hours prior to running the assay on E-VIPR, HEK cells expressing a truncated form of human NaV 1.8 with full channel activity were seeded into microtiter 384-well plates, pre-coated with matrigel, at a density of 25,000 cells per well. 2.5-5% KIR2.1 BacMam virus was added to the final cell suspension before seeding into cell plates. […] Cells were expanded in 5-layer CellSTACK culture chambers or cell culture flasks with vented caps, with 90-95% humidity and 5% CO2.
Reagents and Stock Solutions:
The concentration used can be dependent on viral titer of each batch.
Human Serum (HS, Millipore #S1P1-01KL, or Sigma SLBR5469V and SLBR5470V as a 50%/50% mixture, for 25% assay final concentration)
Hexyl Dye Solution (2× Concentration):
Bath 1 Buffer containing 0.5% β-cyclodextrin (made fresh prior to each use, Sigma #C4767), 8 μM CC2-DMPE and 2 μM DiSBAC6(3). The solution was made by adding 10% Pluronic F127 stock equal to combined volumes of CC2-DMPE and DiSBAC6(3). The order of preparation was first mix Pluronic and CC2-DMPE, then add DiSBAC6(3), then while vortexing add Bath 1/β-Cyclodextrin.
Assay Protocol (7 Key Steps):
The compound plate was backfilled with 45 μL per well of Compound Loading Buffer resulting in a 240-fold dilution of compound following a 1:1 transfer of compound into the cell plate (see Step 6). […] This assay dilution protocol was adjusted to enable a higher dose range to be tested in the presence of HS or if the final assay volume was altered. • 2) Hexyl Dye Solution was prepared. • 3) Cell plates were prepared. On the day of the assay, the media was aspirated, and the cells were washed three times with 80 μL of Bath-1 buffer, maintaining 25 μL residual volume in each well. • 4) 25 μL per well of Hexyl Dye Solution was dispensed into the cell plates. The cells were incubated for 20 minutes at room temperature or ambient conditions in darkness. • 5) 45 μL per well of Compound Loading Buffer was dispensed into compound plates. • 6) The cell plates were washed three times with 80 μL per well of Bath-1 Buffer, leaving […] of residual volume. Then 25 μL per well from compound plate was transferred to each cell plate. The mixture was incubated for 30 minutes at room temperature/ambient conditions. • 7) The cell plate containing compound was read on E-VIPR using the current-controlled amplifier to deliver stimulation wave pulses using a symmetrical biphasic waveform. […] A pre-stimulus recording was performed for each well for 0.5 seconds to obtain the un-stimulated intensities baseline. The stimulatory waveform was followed by 0.5 seconds of post-stimulation recording to examine the relaxation to the resting state. All E-VIPR responses were measured at 200 Hz acquisition rate. Data Analysis:
The response as a function of time was reported as the ratios obtained using the following formula: […]
The data were normalized by calculating the initial (Ri) and final (Rf) ratios. These were the average ratio values during part or all of the pre-stimulation period and during sample points during the stimulation period. The fluorescence ratio (Rf/Ri) was then calculated and reported as a function of time.
Control responses were obtained by performing assays in the presence of the positive control, and in the absence of pharmacological agents (DMSO vehicle negative control).

truncated form of human NaV 1.8 with full channel activity (expressed in HEK cells), sequence (Q9Y5Y9 126-1722 limits assumed): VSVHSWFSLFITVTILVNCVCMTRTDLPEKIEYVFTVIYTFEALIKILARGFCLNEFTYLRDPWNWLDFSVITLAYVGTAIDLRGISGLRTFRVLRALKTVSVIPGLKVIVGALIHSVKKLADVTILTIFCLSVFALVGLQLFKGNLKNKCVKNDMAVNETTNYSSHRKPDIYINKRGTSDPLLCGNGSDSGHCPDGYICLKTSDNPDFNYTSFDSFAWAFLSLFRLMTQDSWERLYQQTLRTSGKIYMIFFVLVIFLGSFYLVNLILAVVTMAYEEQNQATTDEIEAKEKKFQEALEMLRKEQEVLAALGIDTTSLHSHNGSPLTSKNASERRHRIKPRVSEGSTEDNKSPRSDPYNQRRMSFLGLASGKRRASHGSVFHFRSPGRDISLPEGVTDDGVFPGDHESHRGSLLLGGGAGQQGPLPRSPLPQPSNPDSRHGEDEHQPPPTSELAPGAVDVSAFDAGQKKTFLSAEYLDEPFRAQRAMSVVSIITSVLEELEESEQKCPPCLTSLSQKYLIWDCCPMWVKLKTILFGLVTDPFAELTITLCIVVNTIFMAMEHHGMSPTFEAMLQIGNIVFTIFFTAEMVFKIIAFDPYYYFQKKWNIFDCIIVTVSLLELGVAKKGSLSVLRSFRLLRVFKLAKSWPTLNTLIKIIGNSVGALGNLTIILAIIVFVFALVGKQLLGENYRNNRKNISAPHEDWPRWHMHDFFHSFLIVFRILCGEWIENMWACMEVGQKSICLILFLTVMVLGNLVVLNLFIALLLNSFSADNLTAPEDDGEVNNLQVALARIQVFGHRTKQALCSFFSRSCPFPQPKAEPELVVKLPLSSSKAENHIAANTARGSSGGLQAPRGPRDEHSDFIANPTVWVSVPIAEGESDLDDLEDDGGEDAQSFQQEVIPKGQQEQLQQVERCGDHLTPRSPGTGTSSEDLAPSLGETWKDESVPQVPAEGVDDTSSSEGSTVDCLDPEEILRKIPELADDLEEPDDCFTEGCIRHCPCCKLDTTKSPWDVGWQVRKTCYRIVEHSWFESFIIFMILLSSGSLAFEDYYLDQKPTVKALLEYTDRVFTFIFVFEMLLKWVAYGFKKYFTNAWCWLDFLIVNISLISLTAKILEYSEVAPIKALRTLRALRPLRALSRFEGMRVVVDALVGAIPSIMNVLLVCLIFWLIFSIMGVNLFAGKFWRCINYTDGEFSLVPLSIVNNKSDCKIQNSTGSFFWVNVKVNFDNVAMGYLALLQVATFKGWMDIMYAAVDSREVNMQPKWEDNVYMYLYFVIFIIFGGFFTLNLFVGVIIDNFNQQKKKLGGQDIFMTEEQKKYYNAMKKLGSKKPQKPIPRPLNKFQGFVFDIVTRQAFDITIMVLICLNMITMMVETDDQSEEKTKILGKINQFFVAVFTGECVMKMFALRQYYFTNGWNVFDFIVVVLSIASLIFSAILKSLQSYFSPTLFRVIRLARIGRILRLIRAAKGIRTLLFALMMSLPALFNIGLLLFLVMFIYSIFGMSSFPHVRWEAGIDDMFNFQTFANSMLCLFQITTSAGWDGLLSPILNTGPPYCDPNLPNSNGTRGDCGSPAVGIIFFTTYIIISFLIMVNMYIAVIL

The IC50 is the midpoint of a concentration-inhibition curve. With `NC(=O)c1nccc2[nH]c(-c3cc(F)c(C(F)(F)F)cc3Oc3ccc(F)c(F)c3O)cc(=O)c12` [Compound 347, 2-[2-(3,4-difluoro-2-hydroxy-phenoxy)-5-fluoro-4-(trifluoromethyl)phenyl]-4-oxo-1H-1,6-naphthyridine-5-carboxamide], the half-inhibitory concentration (IC50) lay in the range of 500 to 2000 nM.

These data come from patent publication US12503439B2, “Heteroaryl compounds for the treatment of pain” (VERTEX PHARMACEUTICALS INCORPORATED, priority 2022, dated 2025).
